Source: PubChem BioAssay AID2060363 (Molecular Pharmacology Branch, DTP, NCI, 2025)
Values joined by “and” are separate entries in the source; they are usually repeats but may differ in a detail not shown here. Identical values can stand only once.

Tested on: 156681-154-R-J1-PDC tumor spheroids, viability % test/control
Assay: Anticancer human tumor 156681-154-R-J1-PDC patient-derived melanoma cell line growth inhibition [TAK]
Conditions: spheroids with HUVEC and MSC; for viability, T/C: stronger effect = lower value; active means viability on the fitted dose curve at most 10% of control; inactive means the rest
Source text: Combinatorial screen of targeted agents with TAK-243 and ipatasertib in multi-cell type tumor spheroids
A high-throughput screen of multi-cell type tumor spheroids was designed to identify active combinations of targeted small molecules and TAK-243 or ipatasertib. Complex spheroids include a stromal component modeled by human endothelial cells (HUVEC) and fibroblasts modeled by human mesenchymal stem cells (MSCs). The concentration ranges selected for each drug and investigational agent were based upon clinically achievable concentrations if the clinical Cmax of the agent was known.
Compounds. The drugs and investigational agents: TAK-243 (785004), ipatasertib (767898), everolimus (733504), selumetinib (741078), bortezomib (756655), trametinib (758246), ixazomib (758254), vemurafenib (761431), dabrafenib (764134), sapanisertib (764658), alpelisib (765974), and copanlisib (816437), were obtained from the National Cancer Institute (NCI) Developmental Therapeutics Program Chemical Repository. The FDA-approved anticancer drug set is available from the NCI Developmental Therapeutics Program. […] The stock solutions were prepared in dimethyl sulfoxide (DMSO, Sigma-Aldrich, St. Louis, MO, cat. D2650) at 800-fold the tested concentration and stored at -70 degrees C prior to their use. All drugs and investigational agents were tested over a range starting from a high concentration at or near the clinical Cmax and decreasing in half-log increments. If the clinical Cmax for an agent had not been determined, the highest concentration tested was 10 microM.
NCI60 Cell Culture. NCI60 cell lines were obtained from the NCI Developmental Therapeutics Program Tumor Repository. For each lot of cells, the Repository performed Applied Biosystems AmpFLSTR Identifiler testing with PCR amplification to confirm consistency with the published Identifier STR profile for each cell line. Cells were kept in continuous culture for no more than 20 passages. The optimal seeding densities for each of the cell lines at each time point assessed were determined prior to performing the concentration response studies. Briefly, the NCI60 human tumor lines were grown as monolayers in RPMI 1640 medium supplemented with 10% FBS and 2 mmol/L L-glutamine.
An additional 2 lines were from the NCI60 cell line panel including melanomas, MALME-3M and SK-MEL-2. Pooled donor human umbilical vein endothelial cells (HUVEC, Lonza, cat. CC-2519) and human mesenchymal stem cells (hMSC, Lonza, cat. PT-2501) were purchased from Lonza (Walkersville, MD).
PDMR cell lines were grown in complete medium (DC medium): Dulbecco's modified Eagle's medium (DMEM)/F12 supplemented with 5% fetal bovine serum (FBS), 2 mM L-glutamine, 100 U/mL penicillin and 100 µg/ml streptomycin, 0.4 µg/ml hydrocortisone, 10 ng/ml epidermal growth factor (EGF) recombinant human protein, 24 µg/mL adenine, and 0.1 mg/mL primocin. During culture from frozen stock vials, PDMR cells were cultured in the same medium containing 10 µM Y-27632 (see Table 3). The PDCs were cultured in complete DMEM/F12 media without 10 microM Y-27632 dihydrochloride for at least two passages prior to the screen. The pooled donor HUVEC and hMSC were cultured in endothelial cell growth medium 2 (PromoCell, Heidelberg, Germany, cat. C-22011) and mesenchymal stem cell growth medium 2 (PromoCell, cat. C-28009), respectively. For all experiments, HUVEC and hMSC were used at passages </=5.
For the pre-screen, cell seeding densities were determined from a titration spanning the range from 5,000 to 313 cells per well. The mct-spheroids including 60% malignant cells, 25% HUVEC and 15% MSC dispensed as a mixture into U-bottom Ultra-Low Attachment 384-well plates (Corning, NY)
High-throughput Drug Combination Screening.
Prior to their inoculation into 384-well plates, malignant cells, HUVEC, and hMSC were removed from T flasks using TrypLE express (Thermo Fisher Scientific, cat. 12605036) and harvested by centrifugation for 5 min at 233 x g. […]

[1] = curve of first compound, second compound 0.3 µM
[2] = curve of first compound, second compound 0.949 µM
[3] = curve of first compound, second compound 3 µM
[4] = curve of first compound, second compound 9.49 µM
[5] = curve of first compound, second compound 30 µM
[6] = second compound 0.3 µM, first compound 0.0316 µM
[7] = second compound 0.3 µM, first compound 0.1 µM
[8] = second compound 0.949 µM, first compound 0.0316 µM
[9] = second compound 0.949 µM, first compound 0.1 µM
[10] = second compound 3 µM, first compound 0.0316 µM
[11] = second compound 3 µM, first compound 0.1 µM
[12] = second compound 9.49 µM, first compound 0.0316 µM
[13] = second compound 9.49 µM, first compound 0.1 µM
[14] = second compound 30 µM, first compound 0.0316 µM
[15] = second compound 30 µM, first compound 0.1 µM
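Further: spheroids exposed to compounds for 7 days before the endpoint.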

COC1CC2CCC(C)C(O)(O2)C(=O)C(=O)N2CCCCC2C(=O)OC(C(C)CC2CCC(OCCO)C(OC)C2)CC(=O)C(C)C=C(C)C(O)C(OC)C(=O)C(C)CC(C)C=CC=CC=C1C (configuration not stated) + CC(C)NCC(C(=O)N1CCN(c2ncnc3c2C(C)CC3O)CC1)c1ccc(Cl)cc1
2.9 nM: IC50 [2]
active: viability, T/C (second compound 30 µM, first compound 0.01 µM) 8.24% | viability, T/C [14] 9.33% | viability, T/C [15] 8.33%
0.525 nM: IC50 [3]
29 nM: IC50 [1]
< 0.316 nM: IC50 [4] | IC50 [5]
inactive: viability, T/C (second compound 0.3 µM, first compound 0.000316 µM) 80% | viability, T/C (second compound 0.3 µM, first compound 0.001 µM) 79.9% | viability, T/C (second compound 0.3 µM, first compound 0.00316 µM) 65.6% | viability, T/C (second compound 0.3 µM, first compound 0.01 µM) 55.7% | viability, T/C [6] 51.8% | viability, T/C [7] 45.9% | viability, T/C (second compound 0.949 µM, first compound 0.000316 µM) 80.8% | viability, T/C (second compound 0.949 µM, first compound 0.001 µM) 65.2% | viability, T/C (second compound 0.949 µM, first compound 0.00316 µM) 48.4% | viability, T/C (second compound 0.949 µM, first compound 0.01 µM) 45.1% | viability, T/C [8] 46.5% | viability, T/C [9] 40.7% | viability, T/C (second compound 3 µM, first compound 0.000316 µM) 51.8% | viability, T/C (second compound 3 µM, first compound 0.001 µM) 49.1% | viability, T/C (second compound 3 µM, first compound 0.00316 µM) 37.5% | viability, T/C (second compound 3 µM, first compound 0.01 µM) 32.5% | viability, T/C [10] 28.6% | viability, T/C [11] 29.4% | viability, T/C (second compound 9.49 µM, first compound 0.000316 µM) 31.6% | viability, T/C (second compound 9.49 µM, first compound 0.001 µM) 28% | viability, T/C (second compound 9.49 µM, first compound 0.00316 µM) 21.2% | viability, T/C (second compound 9.49 µM, first compound 0.01 µM) 18.8% | viability, T/C [12] 19.5% | viability, T/C [13] 17.4% | viability, T/C (second compound 30 µM, first compound 0.000316 µM) 15.9% | viability, T/C (second compound 30 µM, first compound 0.001 µM) 13.5% | viability, T/C (second compound 30 µM, first compound 0.00316 µM) 12.1%

CC(C)(C)c1nc(-c2cccc(NS(=O)(=O)c3c(F)cccc3F)c2F)c(-c2ccnc(N)n2)s1 + CC(C)NCC(C(=O)N1CCN(c2ncnc3c2C(C)CC3O)CC1)c1ccc(Cl)cc1
active: viability, T/C (second compound 0.949 µM, first compound 3.16 µM) 8.47% | viability, T/C (second compound 0.949 µM, first compound 10 µM) 8.82% | viability, T/C (second compound 3 µM, first compound 1 µM) 7.91% | viability, T/C (second compound 3 µM, first compound 3.16 µM) 5.22% | viability, T/C (second compound 3 µM, first compound 10 µM) 6.48% | viability, T/C (second compound 9.49 µM, first compound 1 µM) 6.56% | viability, T/C (second compound 9.49 µM, first compound 3.16 µM) 3.41% | viability, T/C (second compound 9.49 µM, first compound 10 µM) 3.45% | viability, T/C (second compound 30 µM, first compound 0.316 µM) 7.77% | viability, T/C (second compound 30 µM, first compound 1 µM) 2.12% | viability, T/C (second compound 30 µM, first compound 3.16 µM) 1.1% | viability, T/C (second compound 30 µM, first compound 10 µM) 1.52%
inactive: viability, T/C [6] 103% | viability, T/C [7] 90.7% | viability, T/C (second compound 0.3 µM, first compound 0.316 µM) 36.9% | viability, T/C (second compound 0.3 µM, first compound 1 µM) 14.5% | viability, T/C (second compound 0.3 µM, first compound 3.16 µM) 11.9% | viability, T/C (second compound 0.3 µM, first compound 10 µM) 12.7% | viability, T/C [8] 90.1% | viability, T/C [9] 79% | viability, T/C (second compound 0.949 µM, first compound 0.316 µM) 35.1% | viability, T/C (second compound 0.949 µM, first compound 1 µM) 12.7% | viability, T/C [10] 67.6% | viability, T/C [11] 62.4% | viability, T/C (second compound 3 µM, first compound 0.316 µM) 26.1% | viability, T/C [12] 40.1% | viability, T/C [13] 31.7% | viability, T/C (second compound 9.49 µM, first compound 0.316 µM) 17.3% | viability, T/C [14] 15.6% | viability, T/C [15] 13%
148 nM: IC50 [3]
214 nM: IC50 [2]
239 nM: IC50 [1]
< 31.6 nM: IC50 [4] | IC50 [5]

CC(C)CC(NC(=O)C(Cc1ccccc1)NC(=O)c1cnccn1)B(O)O (configuration not stated)
active: viability, T/C (compound 0.01 µM) 0.36% and 0.32%
inactive: viability, T/C (compound 31.6 pM) 91.3% and 98.6% | viability, T/C (compound 0.0001 µM) 90.4% and 95.9% | viability, T/C (compound 0.000316 µM) 98.8% and 103% | viability, T/C (compound 0.001 µM) 94.7% and 103% | viability, T/C (compound 0.00316 µM) 39.8% and 19.6%
2.55 nM and 2.05 nM: IC50 (curve of compound)
